In patent publication US20120259008A1, “METHOD FOR TREATING ASTHENOPIA” (SUCAMPO AG, priority 2011, published 2012):

Experiments:
Assay type in all cases: in vivo, human
[1] = single administration of eye drop to a subject who had blurring of vision; conditions: eye drop comprising 0.12%, after single administration, subject with blurring of vision
Source text: A subject who had blurring of vision received eye drop comprising 0.12% isopropyl unoprostone. After single administration of it, eye discharge and blurry vision were improved. On the other hand, after single administration of placebo, eye discharge and blurry vision were not improved.

[2] = single administration of eye drop to a subject who had eye pain; conditions: eye drop comprising 0.12%, after single administration, subject with eye pain
Source text: A subject who had eye pain received eye drop comprising 0.12% isopropyl unoprostonen. After single administration of it, eye pain was improved. On the other hand, after single administration of placebo, eye pain was not improved.

[3] = eye drop twice a day for seven days to a subject with presbyopia and astigmatism who was difficult to focus on the objects; conditions: eye drop comprising 0.12% twice a day
Source text: A subject who was difficult to focus on the objects even using the farsighted glasses received eye drop comprising 0.12% isopropyl unoprostone twice a day. They were presbyopia and astigmatism.

With `CCCCCCCC(=O)CC[C@@H]1[C@@H](C/C=C\CCCC(=O)OC(C)C)[C@@H](O)C[C@H]1O` [isopropyl unoprostone, (+)-isopropyl (Z)-7-[(1R,2R,3R,5S)-3,5-dihydroxy-2-(3-oxodecyl)cyclopentyl]hept-5-enoate] the blurry vision [1] was “improved”, the eye discharge [1] was “improved” and the eye pain [2] was “improved”. For the same compound, the “ability to focus on the objects (accommodative function)” value ([3]; after seven days administration, subject with presbyopia and astigmatism) was “able to focus on the objects easier and quicker than before the administration” and the “duration of the improvement in focusing” value ([3]; seven days administration) was “continued for three weeks”.
